This is an account of results in patent US10414811B2, “Protease-resistant lipidated GLP-1 analogs” (MEDIMMUNE LIMITED, priority 2015, dated 2019).

SMILES strings stand for the structures. Like-named read-outs stand apart in the source and are kept apart here. Numbered stars: 1 amine (or outer) side, 2 acyl side, 3 side chain; on linkers, the order of the positions; unused ones are H or OH. Square brackets hold non-standard residues; d marks the D form. Side chains are listed from the residue outwards. Peptide text beside a SMILES is read from it. * marks the point of attachment. C18 diacid = O=C(O)CCCCCCCCCCCCCCCCC(=O)*; γGlu = O=C(O)[C@H](CCC(=O)[*:2])N[*:1]; Palmitoyl = CCCCCCCCCCCCCCCC(=O)*; αMeF = C[C@](N)(Cc1ccccc1)C(=O)O; αMeK = C[C@](N)(CCCCN)C(=O)O; Lauroyl = CCCCCCCCCCCC(=O)*; αMeS = C[C@](N)(CO)C(=O)O; AEEA = NCCOCCOCC(=O)O; Aib = CC(C)(N)C(=O)O Where only a bound is given, the exact number is not on record here.

Holding throughout (type): cell-based
The target in assay [1] is T1, human glucagon receptor (GCGR) (Homo sapiens, UniProt P47871).
T1 construct: expressed in transfected cells
The assay can be described thus: cAMP assay, human GCGR cells. The procedure, abridged:
(§1)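 Peptide-stimulated cAMP measured by two-step HTRF after a 30 min room-temperature incubation with receptor-expressing cells (hGLP-1R, hGIPR at 1×10^5 cells/ml; hGCGR at 2×10^5 cells/ml). Duplicate dilutions; EC50 from 4-parameter logistic fit of % Delta F.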
In general terms: cAMP levels reflect the balance of adenylyl cyclase and phosphodiesterase activity.

The target of assay [2] is T2, human GLP-1 receptor (GLP-1R) (Homo sapiens, UniProt P43220).
T2 construct: expressed in transfected cells
The assay can be described thus: cAMP assay, human GLP-1R cells. The procedure, abridged: as §1

In a further assay the target is T3, GLP-1R (INS1e assay) (Rattus norvegicus, UniProt P32301).
T3 construct: endogenous in cells; host or cells: INS-1E cells
T3 sequence (P32301 22-463): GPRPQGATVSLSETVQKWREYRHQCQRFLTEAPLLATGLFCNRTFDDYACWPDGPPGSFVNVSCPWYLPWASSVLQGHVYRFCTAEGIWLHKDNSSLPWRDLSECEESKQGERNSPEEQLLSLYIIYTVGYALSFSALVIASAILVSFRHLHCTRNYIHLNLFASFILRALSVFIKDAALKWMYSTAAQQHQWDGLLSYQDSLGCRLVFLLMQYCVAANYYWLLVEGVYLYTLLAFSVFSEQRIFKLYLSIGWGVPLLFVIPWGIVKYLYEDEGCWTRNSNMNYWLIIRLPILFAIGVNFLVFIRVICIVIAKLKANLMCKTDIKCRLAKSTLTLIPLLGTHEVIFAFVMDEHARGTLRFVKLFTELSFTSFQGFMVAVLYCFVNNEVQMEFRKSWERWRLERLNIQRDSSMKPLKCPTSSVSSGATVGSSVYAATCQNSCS
The assay can be described thus: INS1e assay, cAMP activity at GLP-1R. The method in brief: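 It pairs cAMP-d2 acceptor with anti-cAMP cryptate donor, both prepared 1/20 in conjugate/lysis buffer, applied as a two-step protocol.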

Assay [3] addresses T4, human glucose-dependent insulinotropic peptide receptor (GIPR) (Homo sapiens, UniProt P48546).
T4 construct: expressed in transfected cells
T4 sequence (P48546 22-466): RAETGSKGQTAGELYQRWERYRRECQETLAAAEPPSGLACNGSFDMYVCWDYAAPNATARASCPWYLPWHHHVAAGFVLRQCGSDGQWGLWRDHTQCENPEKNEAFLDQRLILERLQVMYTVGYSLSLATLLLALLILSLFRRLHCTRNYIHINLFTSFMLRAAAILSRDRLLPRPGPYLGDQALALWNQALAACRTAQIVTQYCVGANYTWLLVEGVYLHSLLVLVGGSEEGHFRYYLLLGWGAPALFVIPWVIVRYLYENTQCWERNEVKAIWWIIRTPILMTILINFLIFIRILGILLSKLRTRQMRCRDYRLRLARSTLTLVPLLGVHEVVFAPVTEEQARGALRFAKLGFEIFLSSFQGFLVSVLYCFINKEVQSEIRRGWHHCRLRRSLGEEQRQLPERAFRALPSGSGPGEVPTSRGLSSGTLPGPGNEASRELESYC
The assay can be described thus: cAMP assay, human GIPR cells. The method in brief:
as §1

The mark [4] stands for this setting: cAMP assay, first determination (n1), read-out: Primary assay EC50 Gluc-R (n1).
[5] abbreviates: cAMP assay, second determination (n2), read-out: Primary assay EC50 Gluc-R (n2).
Setting [6] is: cAMP assay, first determination (n1), read-out: Primary assay EC50 GLP-1R n1.
[7] abbreviates: cAMP assay, second determination (n2), read-out: Primary assay EC50 GLP-1R n2.
Setting [8] is: mean of n1 and n2, read-out: Mean pM GLP-1R.
Setting [9] is: mono-lipidated peptides, mean of n1 and n2, read-out: INS1e assay EC50 Mean pM GLP-1R.
Where [10] appears, read: mono-lipidated peptides, replicate n1, read-out: INS1e assay EC50 GLP-1R n1.
The mark [11] stands for this setting: mono-lipidated peptides, replicate n2, read-out: INS1e assay EC50 GLP-1R n2.
The mark [12] stands for this setting: cAMP assay, first determination (n1), read-out: Primary assay EC50 GIP-R (n1).
Setting [13] is: cAMP assay, second determination (n2), read-out: Primary assay EC50 GIP-R (n2).

T1 sequence (P47871 26-477): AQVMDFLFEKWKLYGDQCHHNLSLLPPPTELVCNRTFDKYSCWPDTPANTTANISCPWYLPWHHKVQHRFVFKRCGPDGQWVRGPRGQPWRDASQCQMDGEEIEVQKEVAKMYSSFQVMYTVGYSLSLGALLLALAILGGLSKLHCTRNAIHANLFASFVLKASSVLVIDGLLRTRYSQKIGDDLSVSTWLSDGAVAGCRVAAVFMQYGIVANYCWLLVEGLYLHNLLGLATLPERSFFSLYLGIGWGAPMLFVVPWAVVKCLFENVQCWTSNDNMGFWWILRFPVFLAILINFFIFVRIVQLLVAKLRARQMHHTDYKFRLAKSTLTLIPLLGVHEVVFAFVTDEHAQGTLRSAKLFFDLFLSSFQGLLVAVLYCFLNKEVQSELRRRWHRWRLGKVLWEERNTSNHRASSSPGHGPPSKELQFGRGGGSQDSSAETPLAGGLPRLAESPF
T2 sequence (P43220 24-463): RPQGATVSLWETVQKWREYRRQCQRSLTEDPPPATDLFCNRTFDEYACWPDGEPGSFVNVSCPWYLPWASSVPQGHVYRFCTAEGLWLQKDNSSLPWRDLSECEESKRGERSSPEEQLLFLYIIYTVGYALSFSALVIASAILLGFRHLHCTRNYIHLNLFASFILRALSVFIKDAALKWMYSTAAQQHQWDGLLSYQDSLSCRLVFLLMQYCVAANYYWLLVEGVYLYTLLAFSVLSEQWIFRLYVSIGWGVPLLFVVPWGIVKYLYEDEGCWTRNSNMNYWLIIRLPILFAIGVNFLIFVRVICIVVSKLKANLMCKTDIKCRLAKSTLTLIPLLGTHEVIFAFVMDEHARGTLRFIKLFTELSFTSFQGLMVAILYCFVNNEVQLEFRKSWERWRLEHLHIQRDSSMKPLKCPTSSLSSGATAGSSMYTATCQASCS

Turning to `CCCCCCCCCCCC(=O)N[C@@H](CCC(=O)NCCOCCOCC(=O)NCCOCCOCC(=O)NCCCC[C@H](NC(=O)[C@H](C)NC(=O)[C@@H](NC(=O)[C@H](Cc1ccccc1)NC(=O)[C@H](CCC(=O)O)NC(=O)[C@](C)(CCCCN)NC(=O)[C@H](C)NC(=O)[C@H](CCCCNC(=O)COCCOCCNC(=O)COCCOCCNC(=O)CC[C@H](NC(=O)CCCCCCCCCCC)C(=O)O)NC(=O)[C@H](CCC(=O)O)NC(=O)CNC(=O)[C@H](CCC(=O)O)NC(=O)[C@H](CCCCNC(=O)COCCOCCNC(=O)COCCOCCNC(=O)CC[C@H](NC(=O)CCCCCCCCCCC)C(=O)O)NC(=O)[C@H](Cc1ccc(O)cc1)NC(=O)[C@H](CO)NC(=O)[C@](C)(CO)NC(=O)[C@@H](NC(=O)[C@H](CC(=O)O)NC(=O)[C@H](CO)NC(=O)[C@@H](NC(=O)[C@](C)(Cc1ccccc1)NC(=O)[C@H](CO)NC(=O)CNC(=O)[C@H](CCC(=O)O)NC(=O)C(C)(C)NC(=O)[C@@H](N)Cc1c[nH]cn1)[C@@H](C)O)C(C)C)[C@@H](C)CC)C(=O)N[C@H](C(=O)N[C@H](C(=O)N[C@@H](CCC(=O)O)C(=O)NCC(=O)NCC(N)=O)C(C)C)C(C)C)C(=O)O` [compound 469] (H-H[Aib]EGS[αMeF]TSDV[αMeS]SYK([AEEA-AEEA-γGlu-Lauroyl])EGEK([AEEA-AEEA-γGlu-Lauroyl])A[αMeK]EFIAK([AEEA-AEEA-γGlu-Lauroyl])VVEGG-NH2; N-terminus assumed), the EC50 is 19800 pM in assay [1] (tris-lipidated peptides, second replicate, read-out: Primary assay EC50 Gluc-R (n2)); 45.4 pM in assay [2] (tris-lipidated peptides, mean of n1 and n2, read-out: Primary assay EC50 Mean pM GLP-1R); 41.8 pM in assay [2] (tris-lipidated peptides, replicate n1, read-out: Primary assay EC50 GLP-1R n1); 49 pM in assay [2] (tris-lipidated peptides, replicate n2, read-out: Primary assay EC50 GLP-1R n2); 4900 pM at GLP-1R (INS1e assay) (tris-lipidated peptides, mean of n1 and n2, read-out: INS1e assay EC50 Mean pM GLP-1R); 6900 pM on GLP-1R (INS1e assay) (tris-lipidated peptides, replicate n1, read-out: INS1e assay EC50 GLP-1R n1). The EC50 on GLP-1R (INS1e assay) (tris-lipidated peptides, replicate n2, read-out: INS1e assay EC50 GLP-1R n2) was 2890 pM; in assay [3] (tris-lipidated peptides, second replicate, read-out: Primary assay EC50 GIP-R (n2)), 19800 pM.
With `CCCCCCCCCCCCCCCC(=O)N[C@@H](CCC(=O)NCCCC[C@H](NC(=O)[C@@H](NC(=O)[C@](C)(Cc1ccccc1)NC(=O)[C@H](CCC(=O)O)NC(=O)[C@](C)(CCCCN)NC(=O)[C@H](C)NC(=O)[C@H](C)NC(=O)[C@H](CCC(=O)O)NC(=O)CNC(=O)[C@H](CCC(=O)O)NC(=O)[C@H](CC(C)C)NC(=O)[C@](C)(Cc1ccccc1)NC(=O)[C@H](CO)NC(=O)[C@](C)(CO)NC(=O)[C@@H](NC(=O)[C@H](CC(=O)O)NC(=O)[C@H](CO)NC(=O)[C@@H](NC(=O)[C@](C)(Cc1ccccc1)NC(=O)[C@H](CO)NC(=O)CNC(=O)[C@H](CCC(=O)O)NC(=O)C(C)(C)NC(=O)[C@@H](N)Cc1c[nH]cn1)[C@@H](C)O)C(C)C)[C@@H](C)CC)C(=O)N[C@@](C)(Cc1ccccc1)C(=O)N[C@H](C(=O)N[C@H](C(=O)N[C@@](C)(CCCCN)C(=O)NCC(=O)NCC(N)=O)C(C)C)C(C)C)C(=O)O` [compound 76] (H-H[Aib]EGS[αMeF]TSDV[αMeS]S[αMeF]LEGEAA[αMeK]E[αMeF]IK([γGlu-Palmitoyl])[αMeF]VV[αMeK]GG-NH2; N-terminus assumed), the EC50 in assay [1] (setting [4]) was at least 27000 pM; in assay [1] (setting [5]), at least 27000 pM; in assay [2] (setting [6]), 8.4 pM; in assay [2] (setting [7]), 6 pM; in assay [2] (setting [8]) it was 7.2 pM; at GLP-1R (INS1e assay) (setting [9]), 429 pM. Also, the EC50 on GLP-1R (INS1e assay) (setting [10]) was 326 pM; on GLP-1R (INS1e assay) (setting [11]) it was 531 pM; in assay [3] (setting [12]), at least 27000 pM; in assay [3] (setting [13]) it was at least 27000 pM.
With `CCCCCCCCCCCCCCCCCC(=O)NCCOCCOCC(=O)NCCOCCOCC(=O)NCCOCCOCC(=O)NCCCC[C@H](NC(=O)[C@H](C)NC(=O)[C@H](C)NC(=O)[C@H](CCC(=O)O)NC(=O)CNC(=O)[C@H](CCC(=O)O)NC(=O)[C@H](CC(C)C)NC(=O)[C@](C)(Cc1ccccc1)NC(=O)[C@H](CO)NC(=O)[C@](C)(CO)NC(=O)[C@@H](NC(=O)[C@H](CC(=O)O)NC(=O)[C@H](CO)NC(=O)[C@@H](NC(=O)[C@](C)(Cc1ccccc1)NC(=O)[C@H](CO)NC(=O)CNC(=O)[C@H](CCC(=O)O)NC(=O)C(C)(C)NC(=O)[C@@H](N)Cc1c[nH]cn1)[C@@H](C)O)C(C)C)C(=O)N[C@@H](CCC(=O)O)C(=O)N[C@@](C)(Cc1ccccc1)C(=O)N[C@H](C(=O)N[C@@H](C)C(=O)N[C@@](C)(Cc1ccccc1)C(=O)N[C@H](C(=O)N[C@H](C(=O)N[C@@](C)(CCCCN)C(=O)NCC(=O)NCC(N)=O)C(C)C)C(C)C)[C@@H](C)CC` [compound 154], the EC50 in assay [1] (setting [4]) is at least 26000 pM; in assay [1] (setting [5]) it was at least 26000 pM; in assay [2] (setting [6]), 2.8 pM; in assay [2] (setting [7]), 2.3 pM; in assay [2] (setting [8]), 2.5 pM; at GLP-1R (INS1e assay) (setting [9]), 25 pM. The EC50 was 32.3 pM on GLP-1R (INS1e assay) (setting [10]), 17.1 pM at GLP-1R (INS1e assay) (setting [11]), at least 26000 pM in assay [3] (setting [12]) and at least 26000 pM in assay [3] (setting [13]).
Turning to `CC[C@H](C)[C@H](NC(=O)[C@](C)(Cc1ccccc1)NC(=O)[C@H](CCC(=O)O)NC(=O)[C@](C)(CCCCN)NC(=O)[C@H](C)NC(=O)[C@H](C)NC(=O)[C@H](CCC(=O)O)NC(=O)CNC(=O)[C@H](CCC(=O)O)NC(=O)[C@H](CC(C)C)NC(=O)[C@](C)(Cc1ccccc1)NC(=O)[C@H](CO)NC(=O)[C@](C)(CO)NC(=O)[C@H](CCCCNC(=O)COCCOCCNC(=O)COCCOCCNC(=O)CC[C@H](NC(=O)CCCCCCCCCCCCCCCCC(=O)O)C(=O)O)NC(=O)[C@H](CC(=O)O)NC(=O)[C@H](CO)NC(=O)[C@@H](NC(=O)[C@](C)(Cc1ccccc1)NC(=O)[C@H](CO)NC(=O)CNC(=O)[C@H](CCC(=O)O)NC(=O)C(C)(C)NC(=O)[C@@H](N)Cc1c[nH]cn1)[C@@H](C)O)C(=O)N[C@@H](C)C(=O)N[C@@](C)(Cc1ccccc1)C(=O)N[C@H](C(=O)N[C@H](C(=O)N[C@@](C)(CCCCN)C(=O)NCC(=O)NCC(N)=O)C(C)C)C(C)C` [compound 119] (H-H[Aib]EGS[αMeF]TSDK([AEEA-AEEA-γGlu-C18 diacid])[αMeS]S[αMeF]LEGEAA[αMeK]E[αMeF]IA[αMeF]VV[αMeK]GG-NH2; N-terminus assumed), the EC50 is at least 25000 pM in assay [1] (setting [4]); at least 25200 pM in assay [1] (setting [5]); 18 pM in assay [2] (setting [6]); 15.7 pM in assay [2] (setting [7]); 17 pM in assay [2] (setting [8]); 2080 pM at GLP-1R (INS1e assay) (setting [9]). In addition, the EC50 on GLP-1R (INS1e assay) (setting [10]) was 2710 pM; at GLP-1R (INS1e assay) (setting [11]), 1450 pM; in assay [3] (setting [12]) it was at least 25000 pM; in assay [3] (setting [13]), at least 25200 pM.
